Reference: patent US20260014129A1, “MITOCHONDRIAL PYRUVATE METABOLISM INHIBITORS FOR TREATING CHRONIC MYELOID LEUKEMIA” (The University Court of the University of Glasgow, priority 2022, published 2026)

Tests used:
CML CD34+ cells [1] = test: Extracellular flux of spent medium by YSI bioanalyser; assay type: cell-based, human
Procedure: A YSI 2900 biochemistry analyser was used as per the manufacturer's instructions to quantify glucose, lactate, glutamine, and glutamate in the media. The concentration of each metabolite was normalised to cell number and the rate of uptake or secretion per hour was calculated relative to cell free medium. The exchange rate per 48 hours [secretion (+) or consumption (−)] for a specific metabolite (x) was obtained according to the following equation:

phospho-CRKL = test: Western blot of phospho-CRKL in CML patient samples; assay type: cell-based, human; conditions: imatinib, two patient samples
Procedure: Cells were lysed in RIPA buffer containing mini-Complete protease inhibitor cocktail and phosphatase inhibitors (both Roche). Total protein concentration was quantified using a Pierce BCA kit (Thermo Fisher Scientific: 23227). Equal amounts of protein (5-7.5 μg) were heated at 95° C. for 5 min and separated (120V) in 4-12% gels (Novex) for SDS-PAGE. Proteins were transferred onto PDVF membranes (Thermo Fisher Scientific: 21882) then blocked in 2% BSA (in Tris-buffered saline, 0.01% Tween (TBS-T)) for one hour. Next, membranes were incubated overnight at 4° C. with the primary antibodies. The membranes were rinsed three times with TBS-T, then incubated with secondary HRP-linked antibodies (1:10,000) for 1 hour at room temperature. The SuperSignal West Femto Maxi detection system was used (Thermo Fisher Scientific: 34095) and imaging was carried out using a LI-COR Odyssey Fc gel-doc system.

KCL22 cell line = test: Imatinib sensitivity of PC knockout KCL22 cell line; assay type: cell-based, human; conditions: data not shown
CML CD34+ cells [2] = test: RNA-seq differential gene expression and GSEA of imatinib-treated CML CD34+ cells; assay type: cell-based, human; conditions: imatinib 2 μM, 48 hours
Procedure: RNA was extracted from 200,000 CML CD34+ cells using an RNA easy mini kit (Qiagen) according to the manufacturer's instructions.
Libraries were prepared using the Illumina TruSeq Stranded mRNA LT Kit (Illumina) and run on the Illumina Next Seq 500 using the High Output 75 cycles kit (2×36 cycles, paired end reads, single index; Illumina). FastQ files were generated using Illumina's bcl2fastq (v. 2.20.0.422).
QC, alignment, and parsing of files into count matrices was performed in command line, with subsequent differential gene expression (DGE) analysis performed in R (1.2.1335). Adapter trimming was performed using Scythe (version 0.981), and Sickle (version 0.940), was used to trim bases with quality scores of less than 20. Prior to and after this pre-processing fastqc (version 0.11.2) was run to ascertain sequence quality, alongside the efficacy of the pre-processing steps. Trimmed reads were indexed and aligned using Hisat2 (version 2.1.0). Hisat2 indexes (GRCh38 genome_tran) were obtained from the John Hopkins Center for Computational Biology, 2020. Samtools (version 0.1.19044428cd) view was used to convert the resulting .sam to .bam files, whilst samtools sort was used to sort the .bam files. Assembly was achieved through the use of stringtie (John Hopkins Center for Computational Biology, 2020), with output .gtf files converted to count matrices using the python script prepDE.py (stringtie version 1.3.3b.Linux_x86_64). Reads were assembled using an annotated reference human genome (GRCh38.p13), obtained from GENCODE (GENECODE, 2020). DESeq2 (version 1.26.0) was used to generate results sets from the gene and transcript count matrices. G genes with read counts too low to allow for the calculation of p and adjusted p-values (padj: Benjamini-Hochberg) were removed from the data sets leaving gene and transcript counts of sizes 16,069 and 45,218 respectively.
GSEA (version 4.1) was conducted on pre-ranked lists (ranked by pi score calculated by multiplying LOG fold change by −LOG (corrected p-value)).

CML CD34+ cells [3] = test: Patient-derived xenograft of CML CD34+ cells in NRG-W41 mice, bone marrow flow cytometry; assay type: in vivo, human
Procedure: Treatment was given for 4 weeks. For treatment with asciminib (ABL001) plus MSDC-0160, twelve weeks following transplant, drug treatment was started with both asciminib (Fisher Scientific Cat #1642956) dosed at 10 mg/kg/day (5 mg/kg BID); oral gavage and MSDC-0160 (Apex Biotechnology: Cat #B3702) dosed at 30 mg/kg; oral gavage once daily. Treatment was given for 4 weeks. At the respective endpoints, bone marrow cells were collected. This was done by placing inverted cut leg bones into 0.5 mL Eppendorf tubes with holes at bottom. These in turn were placed within 1.5 mL Eppendorf tubes containing PBS, centrifuged (12,000 RCF, 20 seconds). Cells were stained (300 μl/test) with anti-mouse (APC-Cy7 BD Biosciences: Cat #557659, RRID: AB_396774, 1 μl), anti-human CD45 (FITC; BD Biosciences: Cat #555482, RRID: AB_395874, 10 μl), anti-human CD34 (APC; BD Biosciences: Cat #555824, RRID: AB_398614, 2 μl) and anti-human CD38 (PerCP; BioLegend: Cat #303520, RRID: AB_893313, 2 μl) antibodies for flow cytometry analysis as described above.

MPC = target: T1, MPC (Homo sapiens, UniProt O95563+Q9Y5U8); conditions: variety of cell types (ref 27); cited from earlier work
T1 sequence (Q9Y5U8 1-109): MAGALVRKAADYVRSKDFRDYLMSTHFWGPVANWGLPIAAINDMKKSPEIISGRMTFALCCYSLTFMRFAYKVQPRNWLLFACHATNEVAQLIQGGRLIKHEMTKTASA
T1 sequence (O95563 1-127): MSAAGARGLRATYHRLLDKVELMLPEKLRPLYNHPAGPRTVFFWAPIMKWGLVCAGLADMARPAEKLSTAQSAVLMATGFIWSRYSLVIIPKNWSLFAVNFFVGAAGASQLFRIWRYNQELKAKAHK

[4] = combination of imatinib and MSDC-0160, 4 weeks

| Structure (SMILES) | glucose consumption (CML CD34+ cells [1]; imatinib-treated vs control primary CML CD34+ cells) | glutamine consumption (CML CD34+ cells [1]; imatinib-treated vs untreated primary CML CD34+ cells) | phospho-CRKL protein level (phospho-CRKL) | sensitivity to the drug after knockout of PC in KCL22 (KCL22 cell line) | most downregulated pathways in GSEA (CML CD34+ cells [2]; Hallmark gene sets) | PC transcript level (CML CD34+ cells [2]; paired transcriptomic data) | PDH transcript level (CML CD34+ cells [2]; paired transcriptomic data) | percentage of human CML LSCs, MSDC-0160 on its own (CML CD34+ cells [3]; MSDC-0160 30 mg/kg once daily, 4 weeks, 12 weeks engraftment) | percentage of human CML LSCs, combination with ABL-001 (CML CD34+ cells [3]; MSDC-0160 30 mg/kg plus ABL-001 10 mg/kg/day, 4 weeks) | total numbers of CML CD45+CD34+CD38- cells (LSC) (CML CD34+ cells [3]; combination of ABL-001 and MSDC-0160 30 mg/kg, 4 weeks) | reduction in percentage of human CD45+ leukocytes and total number of bone marrow CD45+ cells (CML CD34+ cells [3]; combination of imatinib 50 mg/kg BID and MSDC-0160 30 mg/kg/day, 4 weeks) | percentage and absolute number of human CML LSCs (CD34+CD38-) (CML CD34+ cells [3]; [4]) | relative and total reduction of CD34+ cells versus vehicle or imatinib arms (CML CD34+ cells [3]; [4]) | inhibition of MPC activity (MPC) |
| --- | --- | --- | --- | --- | --- | --- | --- | --- | --- | --- | --- | --- | --- | --- |
| Cc1ccc(NC(=O)c2ccc(CN3CCN(C)CC3)cc2)cc1Nc1nccc(-c2cccnc2)n1 [imatinib] | consumed less glucose than control cells, when corrected for a decrease in proliferation this difference disappeared | decreased | decreased | failed to increase sensitivity | oxidative phosphorylation, glycolysis, and fatty acid oxidation | no change | downregulation |  |  |  |  |  |  |  |
| CCc1ccc(C(=O)COc2ccc(CC3SC(=O)NC3=O)cc2)nc1 (centres unmarked) [MSDC-0160] |  |  |  |  |  |  |  | reduction in the percentage of human CML LSCs | reduction in the percentage of human CML LSCs | did not reduce the total numbers | did not reach statistical significance | marked reduction in both the percentage and absolute number | did not reach statistical significance | specifically inhibit MPC activity |
